Results on 27 molecules are retold here after patent publication US12612384B2, “Heterocyclic CYP4A inhibitor compounds and compositions thereof” (MBD CO., LTD., priority 2021, dated 2026).

The first experiment addresses T1, CYP4A (Homo sapiens, UniProt Q02928).
T1 construct: purchased; host or cells: bacterial membranes ('bactosome')
T1 sequence (Q02928 5-519): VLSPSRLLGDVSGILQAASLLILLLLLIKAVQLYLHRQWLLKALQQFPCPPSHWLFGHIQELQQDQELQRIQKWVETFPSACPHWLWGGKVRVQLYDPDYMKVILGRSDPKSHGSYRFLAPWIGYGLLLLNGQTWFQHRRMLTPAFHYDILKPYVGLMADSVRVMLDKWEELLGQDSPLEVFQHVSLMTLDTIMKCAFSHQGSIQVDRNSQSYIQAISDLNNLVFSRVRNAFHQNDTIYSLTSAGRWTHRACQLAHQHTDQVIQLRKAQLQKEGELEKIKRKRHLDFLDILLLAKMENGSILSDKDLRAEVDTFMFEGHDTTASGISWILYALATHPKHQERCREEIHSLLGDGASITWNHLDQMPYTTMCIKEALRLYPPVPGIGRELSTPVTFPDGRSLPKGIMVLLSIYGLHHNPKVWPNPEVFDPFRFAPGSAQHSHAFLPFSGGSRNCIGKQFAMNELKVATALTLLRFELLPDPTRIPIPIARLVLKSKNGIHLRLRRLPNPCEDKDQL
As to the kind of experiment: CYP4A enzyme assay (luminescence, Luciferin-ME). Particulars: Compound concentration 5 μM; 50%-70%; read-out: % Inhibition 50%-70%. The class given is biochemical. How it is done: The CYP4A inhibitory activity of the above compounds of the examples was measured. The reagents used in the experiment were commercially available, and were prepared and used when necessary. The device used for measuring activity was SpectraMax of MOLECULAR DEVICES.
CYP4A bactosome and the compounds to be evaluated (5 μM) were each diluted in assay buffer (100 mM KPO4, 0.1% BSA, 1 mM DTT) and mixed in a 384 well plate (white opaque polystyrene nontreated flat-bottom well), and reaction was carried out at room temperature for 15 minutes. To induce CYP4A reaction, 5 mM Luciferin-ME, NADPH Regeneration system (10× sol. A, 20× sol. B in assay buffer, Cat. Number: V865B, Promega) were sequentially added and mixed, and the reaction was carried out at room temperature for 30 minutes. Then, Luciferin Detection reagent was added thereto and reacted at room temperature for 15 minutes to stop the CYP4A reaction and induce a luminescence reaction. Finally, after measuring the luminescence value using a microplate reader, the inhibition of CYP4A activity by the compounds was evaluated by comparing the luminescence value from each well.
As for `O=C(C1CCCN(S(=O)(=O)CCCO)C1)N1CCN(c2ccnc3cc(F)ccc23)CC1` (stereo not shown) [Example 131, (4-(7-fluoroquinolin-4-yl)piperazin-1-yl)(1-((3-hydroxypropyl)sulfonyl)piperidin-3-yl)methanone], the inhibition (in general, how much of the control response was suppressed) at 5 µM was in the range of 50 to 70%.

Take `Cc1cc(N2CCN(C(=O)C3CCCN(S(=O)(=O)c4ccncc4)C3)CC2)c2ccccc2n1` (stereo not shown) [Example 126, (4-(2-methylquinolin-4-yl)piperazin-1-yl)(1-(pyridin-4-ylsulfonyl)piperidin-3-yl)methanone]: the inhibition at 5 µM lay within 50 to 70%.

The experiment is the same for the next values; noted with them: Compound concentration 5 μM; 70%-90%; read-out: % Inhibition 70%-90%.
As for `O=C(c1ccccc1)N1CCCC(C(=O)N2CCN(c3ccnc4cc(Cl)ccc34)CC2)C1` (stereo not shown) [Example 85, (4-(7-chloroquinolin-4-yl)piperazin-1-yl)(1-(phenylcarbonyl)piperidin-3-yl)methanone], the inhibition at 5 µM is 70 to 90%.

Turning to `O=C(C1CCN(S(=O)(=O)c2ccc(Cl)nc2)C1)N1CCN(c2ccnc3ccccc23)CC1` (stereo not shown) [Example 24, (1-((6-chloropyridin-3-yl)sulfonyl)pyrrolidin-3-yl)(4-(quinolin-4-yl)piperazin-1-yl)methanone], the inhibition at 5 µM lay in the range of 70 to 90%.

Consider `O=C(c1ccncc1)N1CCCC(C(=O)N2CCN(c3ccnc4ccccc34)CC2)C1` (stereo not shown) [Example 115, (1-isonicotinoylpiperidin-3-yl)(4-(quinolin-4-yl)piperazin-1-yl)methanone], for which the inhibition at 5 µM fell in the range of 70 to 90%.

Consider `COc1ccc(C(=O)N2CCCC(C(=O)N3CCN(c4ccnc5ccccc45)CC3)C2)cc1` (stereo not shown) [Example 116, (1-(4-methoxyphenylcarbonyl)piperidin-3-yl)(4-(quinolin-4-yl)piperazin-1-yl)methanone], for which the inhibition at 5 µM is 70 to 90%.

For `COc1ccc2c(N3CCN(C(=O)C4CCCN(C(=O)c5ccc(NC(C)=O)cc5)C4)CC3)ccnc2c1` (stereo not shown) [Example 89, N-(4-(3-(4-(7-methoxyquinolin-4-yl)piperazine-1-carbonyl)piperidine-1-carbonyl)phenyl)acetamide], the inhibition at 5 µM lay in the range of 70 to 90%.

Turning to `Cc1ccc2c(N3CCN(C(=O)[C@H]4CCN(S(=O)(=O)c5ncn[nH]5)C4)CC3)ccnc2c1` [Example 163, (S)-(1-((1H-1,2,4-triazol-5-yl)sulfonyl)pyrrolidin-3-yl)(4-(7-methylquinolin-4-yl)piperazin-1-yl)methanone], the inhibition at 5 µM lay within 70 to 90%.

For the molecule `O=C([C@H]1CCN(S(=O)(=O)c2ncn[nH]2)C1)N1CCN(c2cc(C(F)(F)F)nc3ccccc23)CC1` [Example 167, (S)-(1-((1H-1,2,4-triazol-5-yl)sulfonyl)pyrrolidin-3-yl)(4-(2-(trifluoromethyl)quinolin-4-yl)piperazin-1-yl)methanone], the inhibition at 5 µM lay in the range of 70 to 90%.

For `CC(=O)Nc1ccc(C(=O)N2CCCC(C(=O)N3CCN(c4ccnc5ccccc45)CC3)C2)cc1` (stereo not shown) [Example 111, N-(4-(3-(1-(quinolin-4-yl)piperazine-4-carbonyl)piperidine-1-carbonyl)phenyl)acetamide], the inhibition at 5 µM lay in the range of 70 to 90%.

`O=C(C1CCN(Cc2nnn[nH]2)C1)N1CCN(c2ccnc3cc(F)ccc23)CC1` (stereo not shown) [Example 155, (1-((1H-tetrazol-5-yl)methyl)pyrrolidin-3-yl)(4-(7-fluoroquinolin-4-yl)piperazin-1-yl)methanone]: the inhibition at 5 µM is 70 to 90%.

Take `COC(=O)c1sccc1S(=O)(=O)N1CCC(C(=O)N2CCN(c3ccnc4ccccc34)CC2)C1` (stereo not shown) [Example 50, methyl 3-((3-(4-(quinolin-4-yl)piperazine-1-carbonyl)pyrrolidin-1-yl)sulfonyl)thiophene-2-carboxylate]: the inhibition at 5 µM was 70 to 90%.

Still in this experiment, the particulars now being: Compound concentration 5 μM; Greater than 90%; read-out: % Inhibition Greater than 90%.
`Cc1nc(C)c(S(=O)(=O)N2CCC(C(=O)N3CCN(c4ccnc5ccccc45)CC3)C2)s1` (stereo not shown) [Example 40, (1-((2,4-dimethylthiazol-5-yl)sulfonyl)pyrrolidin-3-yl)(4-(quinolin-4-yl)piperazin-1-yl)methanone]: the inhibition at 5 µM was greater than 90%.

On to `Cc1ncc(-c2ccc(S(=O)(=O)N3CCC(C(=O)N4CCN(c5ccnc6ccccc56)CC4)C3)cc2)cn1` (stereo not shown) [Example 33, (1-((4-(2-methylpyrimidin-5-yl)phenyl)sulfonyl)pyrrolidin-3-yl)(4-(quinolin-4-yl)piperazin-1-yl)methanone], for which the inhibition at 5 µM was greater than 90%.

As to `COc1ccc2c(N3CCN(C(=O)[C@H]4CCN(S(=O)(=O)c5ncn[nH]5)C4)CC3)ccnc2c1` [Example 165, (S)-(1-((1H-1,2,4-triazol-5-yl)sulfonyl)pyrrolidin-3-yl)(4-(7-methoxyquinolin-4-yl)piperazin-1-yl)methanone], the inhibition at 5 µM is greater than 90%.

With `CC(=O)Nc1nc(C)c(S(=O)(=O)N2CC[C@@H](C(=O)N3CCN(c4ccnc5ccccc45)CC3)C2)s1` [Example 48, (R)—N-(4-methyl-5-((3-(4-(quinolin-4-yl)piperazine-1-carbonyl)pyrrolidin-1-yl)sulfonyl)thiazol-2-yl)acetamide], the inhibition at 5 µM is greater than 90%.

As for `O=C([C@H]1CCN(S(=O)(=O)c2ncn[nH]2)C1)N1CCN(c2ccnc3ccc(F)cc23)CC1` [Example 136, (S)-(1-((1H-1,2,4-triazol-5-yl)sulfonyl)pyrrolidin-3-yl)(4-(6-fluoroquinolin-4-yl)piperazin-1-yl)methanone], the inhibition at 5 µM is greater than 90%.

For the molecule `Cn1ccnc1S(=O)(=O)N1CCC(C(=O)N2CCN(c3ccnc4cc(F)ccc34)CC2)C1` (stereo not shown) [Example 5, (4-(7-fluoroquinolin-4-yl)piperazin-1-yl)(1-((1-methyl-1H-imidazol-2-yl)sulfonyl)pyrrolidin-3-yl)methanone], the inhibition at 5 µM was greater than 90%.

Regarding `CN1CCN(c2ccc(S(=O)(=O)N3CCCC(C(=O)N4CCN(c5ccnc6cc(F)ccc56)CC4)C3)cn2)CC1` (stereo not shown) [Example 62, (4-(7-fluoroquinolin-4-yl)piperazin-1-yl)(1-((6-(4-methylpiperazin-1-yl)pyridin-3-yl)sulfonyl)piperidin-3-yl)methanone], the inhibition at 5 µM is greater than 90%.

Turning to `O=C(C1CCN(S(=O)(=O)c2ccc(N3CCOCC3)cc2)C1)N1CCN(c2ccnc3ccccc23)CC1` (stereo not shown) [Example 35, (1-((4-morpholinophenyl)sulfonyl)pyrrolidin-3-yl)(4-(quinolin-4-yl)piperazin-1-yl)methanone], the inhibition at 5 µM was greater than 90%.

With `O=C([C@H]1CCN(S(=O)(=O)c2ncn[nH]2)C1)N1CCN(c2ccnc3cc(O)ccc23)CC1` [Example 164, (S)-(1-((1H-1,2,4-triazol-5-yl)sulfonyl)pyrrolidin-3-yl)(4-(7-hydroxyquinolin-4-yl)piperazin-1-yl)methanone], the inhibition at 5 µM was greater than 90%.

Take `CC(=O)Nc1ccc(C(=O)N2CCCC(C(=O)N3CCN(c4ccnc5ccccc45)CC3)C2)cc1` (stereo not shown) [Example 111, N-(4-(3-(1-(quinolin-4-yl)piperazine-4-carbonyl)piperidine-1-carbonyl)phenyl)acetamide]: the inhibition at 5 µM is greater than 90%.

On to `O=C(C1CN(S(=O)(=O)c2ncn[nH]2)C1)N1CCN(c2ccnc3cc(F)ccc23)CC1` [Example 137, (1-((1H-1,2,4-triazol-5-yl)sulfonyl)azetidin-3-yl)(4-(7-fluoroquinolin-4-yl)piperazin-1-yl)methanone], for which the inhibition at 5 µM is greater than 90%.

`CC(=O)Nc1cccc(S(=O)(=O)N2CCC(C(=O)N3CCN(c4ccnc5cc(F)ccc45)CC3)C2)c1` (stereo not shown) [Example 9, N-(3-((3-(4-(7-fluoroquinolin-4-yl)piperazine-1-carbonyl)pyrrolidin-1-yl)sulfonyl)phenyl)acetamide]: the inhibition at 5 µM is greater than 90%.

As for `O=C([C@H]1CCN(S(=O)(=O)c2ncc[nH]2)C1)N1CCN(c2ccnc3cc(F)c(F)cc23)CC1` [Example 169, (S)-(1-((1H-imidazol-2-yl)sulfonyl)pyrrolidin-3-yl)(4-(6,7-difluoroquinolin-4-yl)piperazin-1-yl)methanone], the inhibition at 5 µM is greater than 90%.

The same experiment, now with this note: Compound concentration 5 μM; Less than 50%; read-out: % Inhibition Less than 50%.
Take `Cc1ccc(S(=O)(=O)N2CCCC(C(=O)N3CCN(c4nc(C)nc5ccccc45)CC3)C2)cc1` (stereo not shown) [Example 80, (4-(2-methylquinazolin-4-yl)piperazin-1-yl)(1-tosylpiperidin-3-yl)methanone]: the inhibition at 5 µM was less than 50%.

As to `Cc1cc(N2CCN(C(=O)C3CCCN(C(=O)C4CCCCC4)C3)CC2)c2ccccc2n1` (stereo not shown) [Example 103, (1-(cyclohexylcarbonyl)piperidin-3-yl)(4-(2-methylquinolin-4-yl)piperazin-1-yl)methanone], the inhibition at 5 µM was less than 50%.

Turning to `O=C(C1CCCN(C(=O)C2CCCCC2)C1)N1CCN(c2cc(C(F)(F)F)nc3ccccc23)CC1` (stereo not shown) [Example 97, (1-(cyclohexylcarbonyl)piperidin-3-yl)(4-(2-(trifluoromethyl)quinolin-4-yl)piperazin-1-yl)methanone], the inhibition at 5 µM is less than 50%.
